These results are taken from patent US10329283B2, “G protein-coupled receptor kinase inhibitors and methods for use of the same” (THE REGENTS OF THE UNIVERSITY OF MICHIGAN, priority 2015, dated 2019).

For data set [1] the following is noted: in words; Thal et al., Mol Pharmacol 2011; cited from earlier work.
For a further data set, the target named is T1, GRK1 (Bos taurus, UniProt P28327).
T1 sequence (P28327 1-535 limits assumed): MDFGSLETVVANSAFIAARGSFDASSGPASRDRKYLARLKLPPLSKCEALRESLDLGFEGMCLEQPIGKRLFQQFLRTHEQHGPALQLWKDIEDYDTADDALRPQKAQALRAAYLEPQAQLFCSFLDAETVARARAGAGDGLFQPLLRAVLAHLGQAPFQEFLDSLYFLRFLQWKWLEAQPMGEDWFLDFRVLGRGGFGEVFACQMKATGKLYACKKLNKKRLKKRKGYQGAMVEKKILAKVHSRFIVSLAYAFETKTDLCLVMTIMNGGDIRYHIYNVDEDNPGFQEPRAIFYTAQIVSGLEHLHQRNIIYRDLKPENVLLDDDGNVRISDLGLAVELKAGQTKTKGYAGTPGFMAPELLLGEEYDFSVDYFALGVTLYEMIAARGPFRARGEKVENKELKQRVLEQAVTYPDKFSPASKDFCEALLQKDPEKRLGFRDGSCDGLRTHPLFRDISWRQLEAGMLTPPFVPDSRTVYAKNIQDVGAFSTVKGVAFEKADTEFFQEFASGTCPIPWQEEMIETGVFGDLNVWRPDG
The data set is described as follows: GRK1 kinetic assay for inhibition of GRKs (phosphorimaging). The class given is biochemical. The following applies: 50 nM GRK, 5 μM ATP, 500 nM bROS or tubulin, 5 min. The protocol:
(§1) The low salt concentration and DDM were used to maximize GRK activity and disrupt small molecule aggregates from forming, respectively. […] Data was analyzed and inhibition curves were fit via GraphPad Prism.

In data set [2] the target is T2, GRK2 (Homo sapiens, UniProt P25098).
T2 sequence (P25098 1-689): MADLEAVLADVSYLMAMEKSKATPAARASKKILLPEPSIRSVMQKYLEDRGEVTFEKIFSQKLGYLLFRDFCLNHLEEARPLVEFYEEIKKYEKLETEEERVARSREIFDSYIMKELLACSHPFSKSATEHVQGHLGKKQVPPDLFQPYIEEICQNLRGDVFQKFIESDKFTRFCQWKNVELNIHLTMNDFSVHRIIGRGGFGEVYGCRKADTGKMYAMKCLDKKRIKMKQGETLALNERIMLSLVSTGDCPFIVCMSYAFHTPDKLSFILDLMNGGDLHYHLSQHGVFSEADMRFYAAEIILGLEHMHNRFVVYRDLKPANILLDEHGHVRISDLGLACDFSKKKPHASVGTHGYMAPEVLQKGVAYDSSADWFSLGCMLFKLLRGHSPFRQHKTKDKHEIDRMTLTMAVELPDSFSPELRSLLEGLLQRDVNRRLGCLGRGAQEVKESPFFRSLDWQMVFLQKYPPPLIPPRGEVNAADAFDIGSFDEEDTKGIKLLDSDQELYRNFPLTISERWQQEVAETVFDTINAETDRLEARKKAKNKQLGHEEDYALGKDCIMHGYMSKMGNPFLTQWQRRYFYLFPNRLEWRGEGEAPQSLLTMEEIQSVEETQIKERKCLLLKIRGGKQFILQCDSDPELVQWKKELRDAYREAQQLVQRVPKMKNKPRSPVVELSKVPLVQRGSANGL
The data set is described as follows: GRK2 kinetic assay for inhibition of GRKs (phosphorimaging). The class given is biochemical. The following applies: 50 nM GRK, 5 μM ATP, 500 nM bROS or tubulin, 5 min. The protocol:
as §1

Another data set addresses GRK5 (Homo sapiens, UniProt P34947). Put plainly: GRK5 kinetic assay for inhibition of GRKs (phosphorimaging). The class given is biochemical. The following applies: 50 nM GRK, 5 μM ATP, 500 nM bROS or tubulin, 5 min. The protocol: as §1
Data set [3] has as its target T2, GRK2. The conditions noted are these: in words; Setyawan et al. 1999, Tesmer et al. 2010; cited from earlier work.

By IC50 is commonly meant the concentration that inhibits the measured activity by half. Lower therefore signals inhibition by little substance.

Where a name gives a salt, the structure may show the parent alone.

GRK5, sequence (P34947 whole entry, species assumed): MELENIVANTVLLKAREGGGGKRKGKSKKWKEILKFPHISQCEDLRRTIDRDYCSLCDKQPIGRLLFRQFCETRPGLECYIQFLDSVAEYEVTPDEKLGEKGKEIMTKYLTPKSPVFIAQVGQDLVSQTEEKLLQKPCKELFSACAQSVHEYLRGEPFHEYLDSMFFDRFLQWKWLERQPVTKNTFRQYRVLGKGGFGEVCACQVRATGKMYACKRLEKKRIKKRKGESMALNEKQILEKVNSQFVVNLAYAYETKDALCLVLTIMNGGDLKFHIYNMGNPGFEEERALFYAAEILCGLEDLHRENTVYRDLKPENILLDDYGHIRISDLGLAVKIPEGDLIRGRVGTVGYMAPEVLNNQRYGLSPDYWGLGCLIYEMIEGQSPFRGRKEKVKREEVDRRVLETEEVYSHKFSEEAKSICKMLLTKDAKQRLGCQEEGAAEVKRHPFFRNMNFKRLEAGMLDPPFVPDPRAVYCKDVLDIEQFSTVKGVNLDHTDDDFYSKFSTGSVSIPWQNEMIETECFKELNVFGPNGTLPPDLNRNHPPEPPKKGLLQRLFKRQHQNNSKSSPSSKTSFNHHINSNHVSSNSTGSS

Consider `CCCn1c(CNc2cccc(C(=O)NCc3c(F)cccc3F)c2)nnc1-c1ccncn1` [Takeda103A], for which the bioavailability entry in data set [1] was “poor bioavailability”.

Turning to `CN1CC[C@@H](c2ccc(F)cc2)[C@H](COc2ccc3[nH]ncc3c2)C1` [Example E32, 5-(((3S,4R)-4-(4-fluorophenyl)-1-methylpiperidin-3-yl)methoxy)-1H-indazole], the IC50 at GRK1 was found to be 51.8 µM; against GRK2 [2] it was 290 nM; against GRK5, 33 µM.

Consider `O=C(NCc1c(C(F)(F)F)cccc1C(F)(F)F)c1cc([C@@H]2CCNC[C@H]2COc2ccc3c(c2)OCO3)ccc1F` [Example E14, 5-((3S,4R)-3-((benzo[d][1,3]dioxol-5-yloxy)methyl)piperidin-4-yl)-N-(2,6-bis(trifluoromethyl)benzyl)-2-fluorobenzamide hydrochloride], for which the results for the IC50 at GRK1, against GRK2 [2] and against GRK5 were 23.6 µM, 770 nM and 41.1 µM, respectively.

Consider `Fc1ccc([C@@H]2CCNC[C@H]2COc2ccc3[nH]ncc3c2)cc1` [Example E18, 5-(((3S,4R)-4-(4-fluorophenyl)piperidin-3-yl)methoxy)-1H-indazole], for which the IC50 on GRK1 is 65.7 µM; against GRK2 [2], 70 nM; against GRK5, 12.8 µM.

As to `O=C(Cc1cc([C@@H]2CCNC[C@H]2COc2ccc3c(c2)OCO3)ccc1F)NCc1ccccn1` [Example E05, 2-(5-((3S,4R)-3-((benzo[d][1,3]dioxol-5-yloxy)methyl)piperidin-4-yl)-2-fluorophenyl)-N-(pyridin-2-ylmethyl)acetamide hydrochloride], the IC50 against GRK1 is 59.2 µM; at GRK2 [2], 3610 nM; against GRK5, more than 100 µM.

For the compound `COc1cccc(OC)c1CNC(=O)c1cc([C@@H]2CCNC[C@H]2COc2cc3cn[nH]c3cc2F)ccc1F` [Example E31, N-(2,6-dimethoxybenzyl)-2-fluoro-5-((3S,4R)-3-(((6-fluoro-1H-indazol-5-yl)oxy)methyl)piperidin-4-yl)benzamide], the IC50 was determined as 40.1 µM against GRK1, 400 nM at GRK2 [2] and 8.12 µM at GRK5.

On to `O=C(NCc1c(Cl)cccc1Cl)c1cc([C@@H]2CCNC[C@H]2COc2ccc3c(c2)OCO3)ccc1F` [Example E16, 5-((3S,4R)-3-((benzo[d][1,3]dioxol-5-yloxy)methyl)piperidin-4-yl)-N-(2,6-dichlorobenzyl)-2-fluorobenzamide hydrochloride], for which the IC50 came out at 16.6 µM at GRK1, 1210 nM on GRK2 [2] and 33.6 µM on GRK5.

With `O=C(N[C@@H]1CNCCC[C@H]1OC(=O)c1cc(O)c(C(=O)c2c(O)cccc2C(=O)O)c(O)c1)c1ccc(O)cc1` [balanol], the “inhibition of GRK2” value at GRK2 [3] was “low nanomolar range”.
